# “And” between values parts separate entries of the source, which are not always exact repeats. Equal values may be shown once.
# Assays:
# vcCNT [1] = molecular target: T1, vcCNT (Vibrio cholerae, UniProt Q9KPL5); assay: biochemical; assay type: binding
# Experimental: The fluorescence anisotropy after each addition was measured. Each titration was performed at least three times. The data for the three titrations were simultaneously fit to a one-site competitive binding model based off of Wang's method ([Wang, 1995]) using nonlinear least-squares analysis in GraphPad Prism to obtain a dissociation constant and standard error.
# hCNTs = conditions: cited from earlier work
# hCNT1 = molecular target: T2, hCNT1 (Homo sapiens, UniProt O00337); assay: two-electrode voltage-clamp of Na+ currents / total charge in Xenopus oocytes expressing hCNT1; assay type: cell-based; conditions: 200 μM nucleoside; hCNT1-expressing Xenopus oocytes; mean of Exp. 1-11
# T2 sequence (O00337 1-649): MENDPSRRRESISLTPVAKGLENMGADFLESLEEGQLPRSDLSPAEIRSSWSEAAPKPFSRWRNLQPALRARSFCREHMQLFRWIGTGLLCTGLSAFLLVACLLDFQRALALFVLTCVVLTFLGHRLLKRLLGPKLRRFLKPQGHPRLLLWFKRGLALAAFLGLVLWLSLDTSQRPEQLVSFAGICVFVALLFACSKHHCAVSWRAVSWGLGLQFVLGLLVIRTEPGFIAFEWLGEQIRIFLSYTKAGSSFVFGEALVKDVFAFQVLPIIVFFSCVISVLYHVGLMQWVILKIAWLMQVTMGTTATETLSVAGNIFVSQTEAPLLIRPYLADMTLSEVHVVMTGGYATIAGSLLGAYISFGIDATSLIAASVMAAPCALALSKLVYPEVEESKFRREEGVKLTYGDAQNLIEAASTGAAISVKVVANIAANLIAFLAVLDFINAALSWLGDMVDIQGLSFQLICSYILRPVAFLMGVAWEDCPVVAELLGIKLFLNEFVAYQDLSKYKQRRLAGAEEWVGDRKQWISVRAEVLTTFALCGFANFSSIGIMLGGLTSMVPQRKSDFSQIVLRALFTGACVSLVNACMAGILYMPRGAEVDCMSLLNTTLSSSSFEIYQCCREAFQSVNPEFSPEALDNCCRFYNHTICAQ
# Text: (§1) To detect nucleoside transport by hCNTs, we turned to two-electrode voltage-clamp electrophysiological recording. Because hCNTs are Na^+-nucleoside symporters, one can measure the current generated by the Na^+ transport that is coupled with nucleoside transport. We injected Xenopus oocytes with mRNA coding for each of the hCNTs and measured inward Na^+ currents elicited by the addition of different nucleosides to the extracellular side.
# (§2) The genes coding for the three hCNTs and vcCNT were cloned into a pGEM-HE vector. Plasmids were linearized using either SphI or NheI, and mRNA was transcribed using the mMESSAGE mMACHINE T7 Transcription Kit (Ambion, Grand Island, NY). Defolliculated Xenopus laevis oocytes were purchased from Ecocyte Bioscience (Austin, TX). Individual oocytes were injected with 40 ng of mRNA using a 10-μl microdispenser (Drummond Scientific, Broomall, PA) fitted with a tapered glass pipette tip and incubated at 17 °C for 4–5 days in ND96 buffer (96 mM NaCl, 2 mM KCl, 1 mM MgCl2, 1.8 mM CaCl2, and 5 mM HEPES pH 7.5) with 0.1% penicillin and streptomycin before recording.
# (§3) The oocyte-recording chamber was gravity-perfused with ND96 buffer at a rate of 2 ml/min. Membrane currents were measured using an Oocyte Clamp (OC-725C; Warner Instruments, Hamden, CT). Individual oocytes were penetrated with two microelectrodes filled with 3 M KCl (0.5–1.0 MΩ). All electrophysiological experiments were conducted at room temperature. The OC-725C Oocyte Clamp was computer-interfaced via an Axon Digidata 1550 and controlled by Axoscope software (Molecular Devices, Sunnyvale, CA). The current signals were filtered at 20 Hz and sampled at intervals of 20 ms. The signals were filtered at 0.5 Hz by use of pCLAMP 10.4 software for data presentation. […] Cells were discarded if resting membrane potentials were unstable or more positive than −30 mV. Oocyte membrane potentials were clamped at −90 mV for holding potentials to measure transporter-generated currents. All data are shown as means ± SEM.
# hCNT3 (375L/446V) = hCNT3 (375L/446V) (Homo sapiens, UniProt Q9HAS3, L446V/V375L); assay: two-electrode voltage-clamp total charge in Xenopus oocytes expressing hCNT3 (375L/446V); assay type: cell-based; conditions: 400 μM nucleoside; hCNT3 (375L/446V)-expressing Xenopus oocytes; mean of Exp. 1-11
# Text: In the paradigm of the alternating-access mechanism of sodium-coupled symporters ([Krishnamurthy et al., 2009]), substrate release is achieved by the transition from the inward-facing occluded to the inward-facing open state (Figure 6C).
# (§4) Figure 6. […] (A) Model of hCNT3 nucleo-pocket. […] (B) Model of hCNT1 nucleo-pocket. […] (C) Hypothetical alternating-access mechanism of vcCNT. A cartoon representation of the different conformational states along the transport cycle is depicted. The transport domain (including HP1, HP2, TM4b, and TM7b) and TM6 are shown as cylinders. […] The nucleo-pocket in the inward-occluded conformation (bottom right) is located between TM6 and TM4 and is marked with a green star. The inward-occluded conformation is derived from the crystal structures of vcCNT. All other conformations are purely hypothetical. The transition between inward- and outward-facing conformations has been proposed to be achieved by a rigid-body movement of the transport domain across TM6 ([Johnson et al., 2012]). Extracellular and intracellular gating likely involves slight rearrangements of HP2/TM4b and HP1/TM7b, respectively. […] See Figure 6—source data 1 for total charge source data. DOI: http://dx.doi.org/10.7554/eLife.03604.024 Figure 6—source data 1. Total charge data. Total charge transported (μC) was calculated as the area under the curve of the current trace after application of the indicated nucleoside to hCNT-expressing Xenopus oocytes. Each row represents a separate experiment done using a different oocyte. The ratios of the total charge transported for the nucleosides are shown in the last columns.
# The genes coding for the three hCNTs and vcCNT were cloned into a pGEM-HE vector. Plasmids were linearized using either SphI or NheI, and mRNA was transcribed using the mMESSAGE mMACHINE T7 Transcription Kit (Ambion, Grand Island, NY). […]
# The oocyte-recording chamber was gravity-perfused with ND96 buffer at a rate of 2 ml/min. Membrane currents were measured using an Oocyte Clamp (OC-725C; Warner Instruments, Hamden, CT). […]
# hCNT3 = molecular target: T3, hCNT3 (Homo sapiens, UniProt Q9HAS3); assay: two-electrode voltage-clamp of Na+ currents / total charge in Xenopus oocytes expressing hCNT3; assay type: cell-based
# T3 sequence (Q9HAS3 1-691): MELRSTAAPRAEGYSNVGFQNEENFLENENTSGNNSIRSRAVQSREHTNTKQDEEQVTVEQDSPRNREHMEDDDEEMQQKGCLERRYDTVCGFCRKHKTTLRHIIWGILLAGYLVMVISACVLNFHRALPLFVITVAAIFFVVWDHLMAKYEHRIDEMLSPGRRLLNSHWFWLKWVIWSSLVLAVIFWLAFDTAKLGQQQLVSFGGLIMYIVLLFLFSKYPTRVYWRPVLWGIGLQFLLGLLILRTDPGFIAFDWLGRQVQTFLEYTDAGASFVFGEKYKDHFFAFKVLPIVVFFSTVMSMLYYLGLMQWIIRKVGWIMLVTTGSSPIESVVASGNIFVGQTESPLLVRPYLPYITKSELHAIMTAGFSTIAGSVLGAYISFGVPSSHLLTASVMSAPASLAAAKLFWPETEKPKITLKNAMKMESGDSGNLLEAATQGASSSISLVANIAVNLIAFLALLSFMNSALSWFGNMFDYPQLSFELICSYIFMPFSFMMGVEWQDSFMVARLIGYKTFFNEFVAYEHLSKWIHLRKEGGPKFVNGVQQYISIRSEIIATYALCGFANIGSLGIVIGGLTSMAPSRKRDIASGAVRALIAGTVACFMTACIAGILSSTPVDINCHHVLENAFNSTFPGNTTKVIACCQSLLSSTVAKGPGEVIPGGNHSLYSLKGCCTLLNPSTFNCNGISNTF
# Text: as §1, §2, §3
# hCNT1 (353V/424L) = hCNT1 (353V/424L) (Homo sapiens, UniProt O00337, L353V/V424L); assay: two-electrode voltage-clamp total charge in Xenopus oocytes expressing hCNT1 (353V/424L); assay type: cell-based; conditions: 400 μM nucleoside, hCNT1 (353V/424L)-expressing Xenopus oocytes
# Text: as §4, §2
# The oocyte-recording chamber was gravity-perfused with ND96 buffer at a rate of 2 ml/min. Membrane currents were measured using an Oocyte Clamp (OC-725C; Warner Instruments, Hamden, CT). Individual oocytes were penetrated with two microelectrodes filled with 3 M KCl (0.5–1.0 MΩ). All electrophysiological experiments were conducted at room temperature. The OC-725C Oocyte Clamp was computer-interfaced via an Axon Digidata 1550 and controlled by Axoscope software (Molecular Devices, Sunnyvale, CA). The current signals were filtered at 20 Hz and sampled at intervals of 20 ms.
# hCNT2 = hCNT2 (Homo sapiens, UniProt O43868); assay: two-electrode voltage-clamp of Na+ currents in Xenopus oocytes expressing hCNT2; assay type: cell-based; conditions: data not shown
# Text: as §1, §2
# The oocyte-recording chamber was gravity-perfused with ND96 buffer at a rate of 2 ml/min. Membrane currents were measured using an Oocyte Clamp (OC-725C; Warner Instruments, Hamden, CT). Individual oocytes were penetrated with two microelectrodes filled with 3 M KCl (0.5–1.0 MΩ). […]
# vcCNT [2] = molecular target: T1, vcCNT; assay: biochemical; assay type: binding; conditions: KD
# hCNT1 (353V/424L), sequence (O00337 whole entry L353V/V424L): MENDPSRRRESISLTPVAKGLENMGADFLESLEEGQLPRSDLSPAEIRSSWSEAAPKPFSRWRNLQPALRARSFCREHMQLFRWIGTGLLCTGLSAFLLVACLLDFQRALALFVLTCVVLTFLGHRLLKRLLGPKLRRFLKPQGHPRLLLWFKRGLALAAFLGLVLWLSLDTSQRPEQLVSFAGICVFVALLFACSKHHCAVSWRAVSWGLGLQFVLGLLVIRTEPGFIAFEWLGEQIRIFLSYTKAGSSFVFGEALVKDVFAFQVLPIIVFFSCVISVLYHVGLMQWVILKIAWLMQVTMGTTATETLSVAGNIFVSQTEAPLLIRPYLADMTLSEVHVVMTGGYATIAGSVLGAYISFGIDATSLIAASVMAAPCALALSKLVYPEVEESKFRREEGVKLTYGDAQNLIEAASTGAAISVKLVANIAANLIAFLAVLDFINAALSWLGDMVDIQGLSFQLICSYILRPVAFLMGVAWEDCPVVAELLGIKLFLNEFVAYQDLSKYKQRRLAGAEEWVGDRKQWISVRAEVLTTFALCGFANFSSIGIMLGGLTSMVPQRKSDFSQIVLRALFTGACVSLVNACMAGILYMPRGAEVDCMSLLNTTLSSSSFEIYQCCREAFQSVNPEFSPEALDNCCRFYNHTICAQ
# T1 sequence (Q9KPL5 entry or part of it): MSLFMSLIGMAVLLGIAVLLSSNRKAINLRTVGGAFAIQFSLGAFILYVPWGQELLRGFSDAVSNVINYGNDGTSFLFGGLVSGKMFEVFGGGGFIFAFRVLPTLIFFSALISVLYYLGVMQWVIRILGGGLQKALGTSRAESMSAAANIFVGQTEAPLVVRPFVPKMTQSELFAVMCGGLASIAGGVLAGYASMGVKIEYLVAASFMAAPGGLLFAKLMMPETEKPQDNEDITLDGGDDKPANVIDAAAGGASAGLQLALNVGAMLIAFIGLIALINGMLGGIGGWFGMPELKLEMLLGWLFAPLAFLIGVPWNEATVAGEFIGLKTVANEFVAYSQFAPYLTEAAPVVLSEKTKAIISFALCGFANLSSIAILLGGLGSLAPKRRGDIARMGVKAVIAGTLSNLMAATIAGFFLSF
# hCNT2, sequence (O43868 whole entry): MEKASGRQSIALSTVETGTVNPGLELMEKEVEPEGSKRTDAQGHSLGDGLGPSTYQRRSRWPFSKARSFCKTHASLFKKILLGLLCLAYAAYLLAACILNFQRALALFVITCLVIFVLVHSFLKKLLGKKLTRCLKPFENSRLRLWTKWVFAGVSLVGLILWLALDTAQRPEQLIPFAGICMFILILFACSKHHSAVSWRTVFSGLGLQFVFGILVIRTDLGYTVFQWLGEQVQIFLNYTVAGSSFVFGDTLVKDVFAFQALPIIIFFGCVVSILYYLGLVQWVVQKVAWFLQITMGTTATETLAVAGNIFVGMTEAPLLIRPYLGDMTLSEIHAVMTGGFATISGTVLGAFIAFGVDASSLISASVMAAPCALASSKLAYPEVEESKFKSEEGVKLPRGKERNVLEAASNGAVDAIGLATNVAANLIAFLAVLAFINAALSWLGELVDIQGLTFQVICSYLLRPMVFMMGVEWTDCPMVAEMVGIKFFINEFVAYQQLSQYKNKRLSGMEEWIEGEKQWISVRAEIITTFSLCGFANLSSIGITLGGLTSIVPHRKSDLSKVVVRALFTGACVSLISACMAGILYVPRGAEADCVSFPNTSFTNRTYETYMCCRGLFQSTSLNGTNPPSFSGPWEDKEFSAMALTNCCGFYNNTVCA
# hCNT3 (375L/446V), sequence (Q9HAS3 whole entry V375L/L446V): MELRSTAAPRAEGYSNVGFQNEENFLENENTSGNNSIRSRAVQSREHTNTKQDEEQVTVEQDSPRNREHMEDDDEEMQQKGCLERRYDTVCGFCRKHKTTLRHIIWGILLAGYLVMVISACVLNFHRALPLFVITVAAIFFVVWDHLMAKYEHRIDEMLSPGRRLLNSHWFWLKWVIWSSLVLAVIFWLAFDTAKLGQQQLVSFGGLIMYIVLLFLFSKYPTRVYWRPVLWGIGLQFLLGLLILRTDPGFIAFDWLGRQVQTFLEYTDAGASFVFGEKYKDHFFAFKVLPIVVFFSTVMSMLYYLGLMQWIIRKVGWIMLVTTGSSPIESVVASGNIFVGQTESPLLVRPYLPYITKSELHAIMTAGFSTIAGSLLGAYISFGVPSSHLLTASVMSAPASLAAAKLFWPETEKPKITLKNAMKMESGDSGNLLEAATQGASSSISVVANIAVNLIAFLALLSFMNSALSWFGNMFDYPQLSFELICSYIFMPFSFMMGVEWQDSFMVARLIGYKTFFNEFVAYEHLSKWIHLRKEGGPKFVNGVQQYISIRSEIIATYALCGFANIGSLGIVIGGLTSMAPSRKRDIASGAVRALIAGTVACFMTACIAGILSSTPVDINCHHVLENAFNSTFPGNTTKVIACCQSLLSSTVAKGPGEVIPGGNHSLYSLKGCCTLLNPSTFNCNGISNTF
compound,measurement,setting,value
O=c1ccn([C@H]2C[C@H](O)[C@@H](CO)O2)c(=O)[nH]1 [2′-deoxyuridine],Kd,vcCNT [1],170 ± 10 µM
Cn1c(=O)ccn([C@@H]2O[C@H](CO)[C@@H](O)[C@H]2O)c1=O [3-methyluridine],Kd,vcCNT [1],520 ± 80 µM
O=c1ccn([C@@H]2O[C@H](CO)C[C@H]2O)c(=O)[nH]1 [3′-deoxyuridine],Kd,vcCNT [1],> 2800 µM
C[C@H]1O[C@@H](n2ccc(=O)[nH]c2=O)[C@H](O)[C@@H]1O [5'-deoxyuridine],Kd,vcCNT [1],> 2800 µM
O=c1[nH]c(=O)n([C@@H]2O[C@H](CO)[C@@H](O)[C@H]2O)cc1Cl [5-chlorouridine],Kd,vcCNT [1],14 ± 1 µM
O=c1[nH]c(=O)n([C@@H]2O[C@H](CO)[C@@H](O)[C@H]2O)cc1F [5-fluorouridine],Kd,vcCNT [1],16 ± 1 µM
same,KD lower than the KD for uridine,"vcCNT [1]; fold, vcCNT",twofold
O=c1[nH]c(=O)n([C@@H]2O[C@H](CO)[C@@H](O)[C@H]2O)cc1I [5-iodouridine],Kd,vcCNT [1],58 ± 5 µM
Cc1cn([C@@H]2O[C@H](CO)[C@@H](O)[C@H]2O)c(=O)[nH]c1=O [5-methyluridine],Kd,vcCNT [1],61 ± 7 µM
Nc1ncnc2c1ncn2[C@@H]1O[C@H](CO)[C@@H](O)[C@H]1O [adenosine],Kd,vcCNT [1],470 ± 100 µM
Nc1ccn([C@@H]2O[C@H](CO)[C@@H](O)[C@@H]2O)c(=O)n1 [cytarabine],binding and transport by hCNTs,"hCNTs; ref Clarke et al., 2006",no significant binding and transport
Nc1ccn([C@@H]2O[C@H](CO)[C@@H](O)C2(F)F)c(=O)n1 [gemcitabine],"Total charge transported, Mean",hCNT1,0.127 μC
same,KD higher than that for cytidine,vcCNT [1],~22 fold
same,"Total charge transported, Mean",hCNT3 (375L/446V),5.697 μC
same,"Total charge transported, Mean","hCNT3; 200 μM nucleoside, hCNT3-expressing Xenopus oocytes, mean of Exp. 1-14",7.084 μC
same,Na+ current on addition of nucleoside,"hCNT3; hCNT3-expressing oocytes, 200 μM",induced Na^+ currents
same,"Total charge transported, Mean",hCNT1 (353V/424L); mean of Exp. 1-8,0.692 μC
same,Total charge transported,"hCNT1 (353V/424L); single oocyte, listed as Gem",0.743 μC and 0.542 μC and 0.572 μC and 0.858 μC and 0.563 μC and 0.586 μC and 0.813 μC
same,transport by hCNT2,hCNT2,transported neither compound
"Cc1cc2cn([C@@H]3O[C@H](CO)[C@@H](O)[C@H]3O)c(=O)nc2[nH]1 [pyrrolo-cytidine, reference compound]",Kd,vcCNT [2],0.9 µM and 0.94 µM
NC(=O)c1ncn([C@@H]2O[C@H](CO)[C@@H](O)[C@H]2O)n1 [ribavirin],Kd,vcCNT [1],1530 µM
O=c1ccn([C@@H]2O[C@H](CO)[C@@H](O)[C@H]2O)c(=O)[nH]1 [uridine],Km,"hCNTs; reported Km values, ref Molina-Arcas et al., 2009",22 to 80 µM
O=c1ncccn1[C@@H]1O[C@H](CO)[C@@H](O)[C@H]1O [zebularine],Kd,vcCNT [1],120 ± 5 µM
same,loss of binding affinity relative to uridine,"vcCNT [1]; fold, vcCNT",threefold
